Where a SMILES comes first, the peptide text is derived from it.

Assay [1] deals with T1, Dickkopf-related protein 1 (Homo sapiens, UniProt O94907).
T1 sequence (O94907 whole entry): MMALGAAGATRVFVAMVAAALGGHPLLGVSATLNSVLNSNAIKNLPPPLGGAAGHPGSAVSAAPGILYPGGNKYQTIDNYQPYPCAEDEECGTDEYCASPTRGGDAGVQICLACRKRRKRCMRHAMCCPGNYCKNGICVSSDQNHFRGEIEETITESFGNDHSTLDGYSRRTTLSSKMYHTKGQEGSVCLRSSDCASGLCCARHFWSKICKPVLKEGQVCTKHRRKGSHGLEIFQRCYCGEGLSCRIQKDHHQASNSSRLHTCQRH
The experiment in a line: Inhibition of biotin-labeled human recombinant DKK1 assessed as reduction in DKK1 interaction with LRP-6/Fc incubated overnight by chemiluminescence based Alpha-screen assay. For orientation: In Alpha technology, singlet oxygen from a donor bead excites a nearby acceptor bead.

For assay [2], the target named is T2, Dickkopf WNT-signaling pathway inhibitor 1 (Rattus norvegicus, UniProt A6I0Z0).
T2 sequence (A6I0Z0 whole entry): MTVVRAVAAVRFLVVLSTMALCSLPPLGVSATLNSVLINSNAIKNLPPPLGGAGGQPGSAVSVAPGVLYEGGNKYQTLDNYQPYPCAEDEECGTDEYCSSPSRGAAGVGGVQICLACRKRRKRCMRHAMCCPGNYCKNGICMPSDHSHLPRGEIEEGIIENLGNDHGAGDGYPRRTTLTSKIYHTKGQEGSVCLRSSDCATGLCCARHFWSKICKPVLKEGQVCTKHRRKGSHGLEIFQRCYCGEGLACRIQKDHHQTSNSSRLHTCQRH
The experiment in a line: Inhibition of biotin-labeled rat recombinant DKK1 assessed as reduction in DKK1 interaction with LRP-6/Fc incubated overnight by chemiluminescence based Alpha-screen assay.

As a reminder, the IC50 is the midpoint of a concentration-inhibition curve. Take `CSCC[C@H](NC(=O)[C@@H]1CCCN1C(=O)[C@H](Cc1ccc(O)cc1)NC(=O)[C@H](CS)NC(=O)[C@H](Cc1cnc[nH]1)NC(=O)[C@H](CC(N)=O)NC(=O)[C@H](CC(N)=O)NC(=O)[C@H](CC(N)=O)NC(=O)[C@H](CCCNC(=N)N)NC(=O)[C@H](CS)NC(=O)[C@H](CCC(N)=O)NC(=O)[C@H](Cc1ccccc1)NC(=O)[C@H](Cc1ccc(O)cc1)NC(=O)[C@H](CO)NC(=O)[C@H](C)NC(=O)[C@@H]1CCCN1C(=O)[C@@H](N)CS)C(=O)N[C@@H](CCC(=O)O)C(=O)N[C@@H](Cc1c[nH]c2ccccc12)C(=O)N[C@@H](CCCNC(=N)N)C(=O)N[C@@H](CS)C(=O)N[C@@H](CC(=O)O)C(=O)NCC(=O)N[C@@H](Cc1ccccc1)C(=O)N[C@@H](CCC(N)=O)C(=O)N[C@@H](CC(=O)O)C(=O)N[C@@H](CS)C(=O)N[C@@H](CCC(=O)O)C(=O)N[C@@H](CC(=O)O)C(=O)NCC(=O)N[C@@H](CO)C(=O)N[C@@H](CC(=O)O)C(=O)N[C@@H](CCC(=O)O)C(=O)N[C@@H](CCCCN)C(=O)NCC(=O)N[C@@H](CS)C(=O)N1CCC[C@H]1C(=O)N[C@@H](Cc1ccc(O)cc1)C(=O)N[C@@H](CCCNC(=N)N)C(=O)N[C@H](C(=O)O)[C@@H](C)O` (H-CPASYFQCRNNNHCYPMEWRCDGFQDCEDGSDEKGCPYRT-OH): the IC50 in assay [1] and in assay [2] was 40 to 80 nM throughout.

For the compound `CC[C@H](C)[C@H](NC(=O)[C@H](CC(C)C)NC(=O)[C@@H]1CCCN1C(=O)[C@H](Cc1ccccc1)NC(=O)[C@H](CS)NC(=O)[C@H](CCSC)NC(=O)[C@H](CCCCN)NC(=O)[C@H](CC(=O)O)NC(=O)[C@H](C)NC(=O)[C@H](CS)NC(=O)[C@H](CCSC)NC(=O)[C@H](Cc1ccccc1)NC(=O)[C@H](CCC(=O)O)NC(=O)[C@H](CC(N)=O)NC(=O)[C@H](CO)NC(=O)[C@@H]1CCCN1C(=O)[C@@H](N)CS)C(=O)N[C@@H](Cc1ccccc1)C(=O)N[C@@H](CC(C)C)C(=O)N[C@@H](CS)C(=O)N[C@@H](CC(=O)O)C(=O)NCC(=O)N[C@@H](CCC(=O)O)C(=O)N[C@@H](CC(N)=O)C(=O)N[C@@H](CC(=O)O)C(=O)N[C@@H](CS)C(=O)N[C@@H](CCC(=O)O)C(=O)N[C@@H](CC(=O)O)C(=O)NCC(=O)N[C@@H](CO)C(=O)N[C@@H](CC(=O)O)C(=O)N[C@@H](CCC(=O)O)C(=O)N[C@H](C(=O)N[C@@H](CC(=O)O)C(=O)N[C@@H](CS)C(=O)N1CCC[C@H]1C(=O)N[C@@H](CO)C(=O)N[C@@H](CCCNC(=N)N)C(=O)N[C@H](C(=O)O)[C@@H](C)O)C(C)C` (H-CPSNEFMCADKMCFPLIFLCDGENDCEDGSDEVDCPSRT-OH), the IC50 in assay [1] and in assay [2] was 40 to 80 nM in each case.

As to `CC[C@H](C)[C@H](NC(=O)[C@H](CC(C)C)NC(=O)[C@@H]1CCCN1C(=O)[C@H](Cc1ccccc1)NC(=O)[C@H](CS)NC(=O)[C@H](CCSC)NC(=O)[C@H](CCCCN)NC(=O)[C@H](CC(=O)O)NC(=O)[C@@H]1CCCN1C(=O)[C@H](CS)NC(=O)[C@H](CCSC)NC(=O)[C@H](Cc1ccccc1)NC(=O)[C@H](CCC(=O)O)NC(=O)[C@H](CC(N)=O)NC(=O)[C@H](CC(C)C)NC(=O)[C@@H]1CCCN1C(=O)[C@@H](N)CS)C(=O)N[C@@H](Cc1ccccc1)C(=O)N[C@@H](CC(C)C)C(=O)N[C@@H](CS)C(=O)N[C@@H](CC(=O)O)C(=O)NCC(=O)N[C@@H](CCC(=O)O)C(=O)N[C@@H](CC(N)=O)C(=O)N[C@@H](CC(=O)O)C(=O)N[C@@H](CS)C(=O)N[C@@H](Cc1cnc[nH]1)C(=O)N[C@@H](CC(=O)O)C(=O)NCC(=O)N[C@@H](CO)C(=O)N[C@@H](CC(=O)O)C(=O)N[C@@H](CCC(=O)O)C(=O)N[C@@H](C)C(=O)N[C@@H](Cc1ccc(O)cc1)C(=O)N[C@@H](CS)C(=O)N1CCC[C@H]1C(=O)N[C@@H](CO)C(=O)N[C@@H](CCCNC(=N)N)C(=O)N[C@H](C(=O)O)[C@@H](C)O` (H-CPLNEFMCPDKMCFPLIFLCDGENDCHDGSDEAYCPSRT-OH), the IC50 in assay [1] and in assay [2] was not above 1 nM throughout.

`CSCC[C@H](NC(=O)[C@@H]1CCCN1C(=O)[C@H](Cc1ccc(O)cc1)NC(=O)[C@H](CS)NC(=O)[C@H](Cc1cnc[nH]1)NC(=O)[C@H](CC(N)=O)NC(=O)[C@H](CC(C)C)NC(=O)[C@H](CC(N)=O)NC(=O)CNC(=O)[C@H](CS)NC(=O)[C@H](CCC(N)=O)NC(=O)[C@H](Cc1ccccc1)NC(=O)[C@H](Cc1ccc(O)cc1)NC(=O)[C@H](CO)NC(=O)[C@H](C)NC(=O)[C@@H]1CCCN1C(=O)[C@@H](N)CS)C(=O)N[C@@H](CCC(=O)O)C(=O)N[C@@H](Cc1c[nH]c2ccccc12)C(=O)N[C@@H](CCCNC(=N)N)C(=O)N[C@@H](CS)C(=O)N[C@@H](CC(=O)O)C(=O)NCC(=O)N[C@@H](Cc1ccccc1)C(=O)N[C@@H](CCC(N)=O)C(=O)N[C@@H](CC(=O)O)C(=O)N[C@@H](CS)C(=O)N[C@H](C(=O)N[C@@H](CC(=O)O)C(=O)NCC(=O)N[C@@H](CO)C(=O)N[C@@H](CC(=O)O)C(=O)N[C@@H](CCC(=O)O)C(=O)N[C@@H](CCCCN)C(=O)NCC(=O)N[C@@H](CS)C(=O)N1CCC[C@H]1C(=O)N[C@@H](Cc1ccc(O)cc1)C(=O)N[C@@H](CCCNC(=N)N)C(=O)N[C@H](C(=O)O)[C@@H](C)O)C(C)C` (H-CPASYFQCGNLNHCYPMEWRCDGFQDCVDGSDEKGCPYRT-OH): the IC50 in assay [1] and in assay [2] was not above 1 nM throughout.

As for `CSCC[C@H](NC(=O)[C@@H]1CCCN1C(=O)[C@H](Cc1ccc(O)cc1)NC(=O)[C@H](CS)NC(=O)[C@H](Cc1cnc[nH]1)NC(=O)[C@@H]1CCCN1C(=O)[C@H](Cc1cnc[nH]1)NC(=O)[C@H](CC(N)=O)NC(=O)[C@H](CCCNC(=N)N)NC(=O)[C@H](CS)NC(=O)[C@H](CCC(N)=O)NC(=O)[C@H](Cc1ccccc1)NC(=O)[C@H](Cc1ccc(O)cc1)NC(=O)[C@H](CO)NC(=O)[C@H](C)NC(=O)[C@@H]1CCCN1C(=O)[C@@H](N)CS)C(=O)N[C@@H](CCC(=O)O)C(=O)N[C@@H](Cc1c[nH]c2ccccc12)C(=O)N[C@@H](CCCNC(=N)N)C(=O)N[C@@H](CS)C(=O)N[C@@H](CC(=O)O)C(=O)NCC(=O)N[C@@H](Cc1ccccc1)C(=O)N1CCC[C@H]1C(=O)N[C@@H](CC(=O)O)C(=O)N[C@@H](CS)C(=O)N[C@H](C(=O)N[C@@H](CC(=O)O)C(=O)NCC(=O)N[C@@H](CO)C(=O)N[C@@H](CC(=O)O)C(=O)N[C@@H](CCC(=O)O)C(=O)N[C@@H](CCCCN)C(=O)NCC(=O)N[C@@H](CS)C(=O)N1CCC[C@H]1C(=O)N[C@@H](Cc1ccc(O)cc1)C(=O)N[C@@H](CCCNC(=N)N)C(=O)N[C@H](C(=O)O)[C@@H](C)O)C(C)C` (H-CPASYFQCRNHPHCYPMEWRCDGFPDCVDGSDEKGCPYRT-OH), the IC50 in assay [1] and in assay [2] was not above 1 nM throughout.

Regarding `CSCC[C@H](NC(=O)[C@@H]1CCCN1C(=O)[C@H](Cc1ccc(O)cc1)NC(=O)[C@H](CS)NC(=O)[C@H](Cc1cnc[nH]1)NC(=O)[C@H](CC(N)=O)NC(=O)[C@H](Cc1cnc[nH]1)NC(=O)[C@H](CC(N)=O)NC(=O)[C@H](CCCNC(=N)N)NC(=O)[C@H](CS)NC(=O)[C@H](CCCNC(=N)N)NC(=O)[C@H](Cc1ccccc1)NC(=O)[C@H](Cc1ccc(O)cc1)NC(=O)[C@H](CO)NC(=O)[C@H](C)NC(=O)[C@@H]1CCCN1C(=O)[C@@H](N)CS)C(=O)N[C@@H](CCC(=O)O)C(=O)N[C@@H](Cc1c[nH]c2ccccc12)C(=O)N[C@@H](CCCNC(=N)N)C(=O)N[C@@H](CS)C(=O)N[C@@H](CC(=O)O)C(=O)NCC(=O)N[C@@H](Cc1ccccc1)C(=O)N[C@@H](CC(=O)O)C(=O)N[C@@H](CC(=O)O)C(=O)N[C@@H](CS)C(=O)N[C@@H](CCC(=O)O)C(=O)N[C@@H](CC(=O)O)C(=O)NCC(=O)N[C@@H](CO)C(=O)N[C@@H](CC(=O)O)C(=O)N[C@@H](CCC(=O)O)C(=O)N[C@@H](CCC(N)=O)C(=O)NCC(=O)N[C@@H](CS)C(=O)N1CCC[C@H]1C(=O)N[C@@H](Cc1ccc(O)cc1)C(=O)N[C@@H](CCCNC(=N)N)C(=O)N[C@H](C(=O)O)[C@@H](C)O` (H-CPASYFRCRNHNHCYPMEWRCDGFDDCEDGSDEQGCPYRT-OH), the IC50 in assay [1] and in assay [2] was not above 1 nM each time.

Turning to `CSCC[C@H](NC(=O)[C@H](CCCCN)NC(=O)[C@H](CC(=O)O)NC(=O)[C@@H]1CCCN1C(=O)[C@H](CS)NC(=O)[C@H](CCSC)NC(=O)[C@H](Cc1ccccc1)NC(=O)[C@H](CCC(=O)O)NC(=O)[C@H](CC(N)=O)NC(=O)[C@H](CO)NC(=O)[C@@H]1CCCN1C(=O)[C@@H](N)CS)C(=O)N[C@@H](CS)C(=O)N[C@@H](Cc1ccccc1)C(=O)N1CCC[C@H]1C(=O)N[C@@H](CC(C)C)C(=O)N[C@@H](CO)C(=O)N[C@@H](Cc1ccccc1)C(=O)N[C@@H](CCCNC(=N)N)C(=O)N[C@@H](CS)C(=O)N[C@@H](CC(=O)O)C(=O)NCC(=O)N[C@@H](CCC(=O)O)C(=O)N[C@@H](CC(N)=O)C(=O)N[C@@H](CC(=O)O)C(=O)N[C@@H](CS)C(=O)N[C@@H](CCC(=O)O)C(=O)N[C@@H](CC(=O)O)C(=O)NCC(=O)N[C@@H](CO)C(=O)N[C@@H](CC(=O)O)C(=O)N[C@@H](CCC(=O)O)C(=O)N[C@@H](CC(C)C)C(=O)N[C@@H](Cc1ccc(O)cc1)C(=O)N[C@@H](CS)C(=O)N1CCC[C@H]1C(=O)N[C@@H](CO)C(=O)N[C@@H](CCCNC(=N)N)C(=O)N[C@H](C(=O)O)[C@@H](C)O` (H-CPSNEFMCPDKMCFPLSFRCDGENDCEDGSDELYCPSRT-OH), the IC50 in assay [1] and in assay [2] was not above 1 nM in each case.

Values taken from ChEMBL document CHEMBL4417633, “Inhibitory polypeptides specific to WNT inhibitors” (2017).
